Patent US20040127446A1 (priority 1992, published 2004)
[invAb] = 3' inverted deoxyabasic cap; [2NH2-N] = 2'-deoxy-2'-amino ribonucleotide (N: the base); [amino-N] = 2'-deoxy-2'-amino nucleotide (N: the base); [I] = hypoxanthine (inosine); m = 2'-O-methyl; r = 2'-OH (RNA)

Tested on: plus strand HCV RNA
Assay type: biochemical, Hepatitis C virus
Details: plus strand (+) HCV site, 50 mM Tris-Cl, pH 8.0, 40 mM Mg2+ at 37°, trace substrate, enzymatic nucleic acid concentration of 500 nM or greater

Row | Substance | % Substrate Cleaved in 3 hours [%]
1 | 22719 (UGGAAGAUGAUGGCAUGCACUAUGCGCGACUGAGA; sugars from the 5' end mmmmmmmmrrrmmmmmrmmmmmmmmmrmmmmmmmm, [invAb] at 3' end, backbone not given here) [compound 22719] | 69.88

Tested on: minus strand HCV RNA
Assay type: biochemical, Hepatitis C virus
Details: minus strand (−) HCV site, 50 mM Tris-Cl, pH 8.0, 40 mM Mg2+ at 37°, trace substrate, enzymatic nucleic acid concentration of 500 nM or greater

Row | Substance | % Substrate Cleaved in 3 hours [%]
2 | 22724 (GGAUGGUUGAUGGCAUGCACUAUGCGCGAGACAGG; sugars from the 5' end mmmmmmmmrrrmmmmmrmmmmmmmmmrmmmmmmmm, [invAb] at 3' end, backbone not given here) [compound 22724] | 65.16
3 | 22725 (GGAAAAGUGAUGGCAUGCACUAUGCGCGAACAGGA; sugars from the 5' end mmmmmmmmrrrmmmmmrmmmmmmmmmrmmmmmmmm, [invAb] at 3' end, backbone not given here) [compound 22725] | 94.66
4 | 22726 (AGAAGAAUGAUGGCAUGCACUAUGCGCGACGAGGA; sugars from the 5' end mmmmmmmmrrrmmmmmrmmmmmmmmmrmmmmmmmm, [invAb] at 3' end, backbone not given here) [compound 22726] | 82.14
5 | 22727 (GGACGAGUGAUGGCAUGCACUAUGCGCGACUUUGU; sugars from the 5' end mmmmmmmmrrrmmmmmrmmmmmmmmmrmmmmmmmm, [invAb] at 3' end, backbone not given here) [compound 22727] | 67.20
6 | 22728 (GGUAGGUUGAUGGCAUGCACUAUGCGCGAAGUGGC; sugars from the 5' end mmmmmmmmrrrmmmmmrmmmmmmmmmrmmmmmmmm, [invAb] at 3' end, backbone not given here) [compound 22728] | 81.06
7 | 22752 (AAGAGGAGCCGAAAGGCGAGUGAGGUCUGCGGCGA; 2'-O-methyl at 1, 2, 3, 4, 5, 6, 7, 8, 9, 10, 11, 12, 13, 14, 15, 16, [amino-N] at 17, 27, [invAb] at 3' end, other sugars and backbone not given here) [compound 22752] | 27.83
8 | 22753 (UGGAAGAGCCGAAAGGCGAGUGAGGUCUACUGAGA; 2'-O-methyl at 1, 2, 3, 4, 5, 6, 7, 8, 9, 10, 11, 12, 13, 14, 15, 16, [2NH2-N] at 17, 27, [invAb] at 3' end, other sugars and backbone not given here) [compound 22753] | 89.39
9 | 22754 (AGGAGUAGCCGAAAGGCGAGUGAGGUCUGUGGAGG; 2'-O-methyl at 1, 2, 3, 4, 5, 6, 7, 8, 9, 10, 11, 12, 13, 14, 15, 16, [2NH2-N] at 17, 27, [invAb] at 3' end, other sugars and backbone not given here) [compound 22754] | 50.40
10 | 22755 (CGAAGCAGCCGAAAGGCGAGUGAGGUCUAUGUGGA; 2'-O-methyl at 1, 2, 3, 4, 5, 6, 7, 8, 9, 10, 11, 12, 13, 14, 15, 16, [2NH2-N] at 17, 27, [invAb] at 3' end, other sugars and backbone not given here) [compound 22755] | 81.10
11 | 22756 (UGGAAGAGCCGAAAGGCGAGUGAGGUCUGGCGUGA; 2'-O-methyl at 1, 2, 3, 4, 5, 6, 7, 8, 9, 10, 11, 12, 13, 14, 15, 16, [2NH2-N] at 17, 27, [invAb] at 3' end, other sugars and backbone not given here) [compound 22756] | 73.47
12 | 22780 (GACACUGCUGAUGAGGCCGUUAGGCCGAANACACCA; ribozyme; 2'-O-methyl at 1, 2, 3, 4, 5, 6, 7, 15, 16, 17, 18, 19, 20, 21, 22, 23, 24, 25, 26, 31, 32, 33, 34, 35, 36, [I] at 30, [invAb] at 3' end, other sugars and backbone not given here) [compound 22780] | 87.33
13 | 22781 (GAGAUGACUGAUGAGGCCGUUAGGCCGAANGCGAAG; 2'-O-methyl at 1, 2, 3, 4, 5, 6, 7, 15, 16, 17, 18, 19, 20, 21, 22, 23, 24, 25, 26, 31, 32, 33, 34, 35, 36, [I] at 30, [invAb] at 3' end, other sugars and backbone not given here) [compound 22781] | 70.67
14 | 22782 (GGAUGAGCUGAUGAGGCCGUUAGGCCGAANAGAGGU; 2'-O-methyl at 1, 2, 3, 4, 5, 6, 7, 15, 16, 17, 18, 19, 20, 21, 22, 23, 24, 25, 26, 31, 32, 33, 34, 35, 36, [I] at 30, [invAb] at 3' end, other sugars and backbone not given here) [compound 22782] | 78.83
15 | 22783 (UGUGCAGCUGAUGAGGCCGUUAGGCCGAANGAUGAA; 2'-O-methyl at 1, 2, 3, 4, 5, 6, 7, 15, 16, 17, 18, 19, 20, 21, 22, 23, 24, 25, 26, 31, 32, 33, 34, 35, 36, [I] at 30, [invAb] at 3' end, other sugars and backbone not given here) [compound 22783] | 86.93
16 | 22784 (UGGAUGACUGAUGAGGCCGUUAGGCCGAANCUGUUG; 2'-O-methyl at 1, 2, 3, 4, 5, 6, 7, 15, 16, 17, 18, 19, 20, 21, 22, 23, 24, 25, 26, 31, 32, 33, 34, 35, 36, [I] at 30, [invAb] at 3' end, other sugars and backbone not given here) [compound 22784] | 90.41
17 | 22948 (GCGAGCCCUGAUGAGGCCGUUAGGCCGAAACGAGUC; 2'-O-methyl at 1, 2, 3, 4, 5, 6, 7, 15, 16, 17, 18, 19, 20, 21, 22, 23, 24, 25, 26, 31, 32, 33, 34, 35, 36, [invAb] at 3' end, other sugars and backbone not given here) [compound 22948] | 88.34
18 | 22949 (GCUGGAACUGAUGAGGCCGUUAGGCCGAAACACUGA; 2'-O-methyl at 1, 2, 3, 4, 5, 6, 7, 15, 16, 17, 18, 19, 20, 21, 22, 23, 24, 25, 26, 31, 32, 33, 34, 35, 36, [invAb] at 3' end, other sugars and backbone not given here) [compound 22949] | 89.16
19 | 22950 (AGGAUGACUGAUGAGGCCGUUAGGCCGAAAGAGAGG; 2'-O-methyl at 1, 2, 3, 4, 5, 6, 7, 15, 16, 17, 18, 19, 20, 21, 22, 23, 24, 25, 26, 31, 32, 33, 34, 35, 36, [invAb] at 3' end, other sugars and backbone not given here) [compound 22950] | 83.43
20 | 22951 (UGAGGAGCUGAUGAGGCCGUUAGGCCGAAACGUGGA; 2'-O-methyl at 1, 2, 3, 4, 5, 6, 7, 15, 16, 17, 18, 19, 20, 21, 22, 23, 24, 25, 26, 31, 32, 33, 34, 35, 36, [invAb] at 3' end, other sugars and backbone not given here) [compound 22951] | 83.25
21 | 22952 (GACUGGACUGAUGAGGCCGUUAGGCCGAAAUGCACG; 2'-O-methyl at 1, 2, 3, 4, 5, 6, 7, 15, 16, 17, 18, 19, 20, 21, 22, 23, 24, 25, 26, 31, 32, 33, 34, 35, 36, [invAb] at 3' end, other sugars and backbone not given here) [compound 22952] | 86.96
22 | 22976 (AAGAGGAGGCTAGCTACAACGAGCGGCGAN; 3' inverted abasic cap (B); Description of Artificial Sequence: Nucleic Acid; misc_feature (30)..(30): n stands for inverted deoxyabasic derivative; misc_feature (1)..(7): 2'-O-Methyl; misc_feature (23)..(29): 2'-O-Methyl) [compound 22976] | 66.06
23 | 22977 (AAGGAGAGGCTAGCTACAACGAGAAGGCGN; 3' inverted abasic cap (B); Description of Artificial Sequence: Nucleic Acid; misc_feature (30)..(30): n stands for inverted deoxyabasic derivative; misc_feature (1)..(7): 2'-O-Methyl; misc_feature (23)..(29): 2'-O-Methyl) [compound 22977] | 71.28
24 | 22978 (AGGAGGAGGCTAGCTACAACGAGAGAGAGN; 3' inverted abasic cap (B); Description of Artificial Sequence: Nucleic Acid; misc_feature (1)..(7): 2'-O-Methyl; misc_feature (23)..(29): 2'-O-Methyl; misc_feature (30)..(30): n stands for inverted deoxyabasic derivative) [compound 22978] | 61.60
25 | 22979 (AGGAGUAGGCTAGCTACAACGAGUGGAGGN; 3' inverted abasic cap (B); Description of Artificial Sequence: Nucleic Acid; misc_feature (30)..(30): n stands for inverted deoxyabasic derivative; misc_feature (1)..(7): 2'-O-Methyl; misc_feature (23)..(29): 2'-O-Methyl) [compound 22979] | 85.53
26 | 22980 (GUUGUGAGGCTAGCTACAACGAUUGGAGGN; 3' inverted abasic cap (B); Description of Artificial Sequence: Nucleic Acid; misc_feature (30)..(30): n stands for inverted deoxyabasic derivative; misc_feature (1)..(7): 2'-O-Methyl; misc_feature (23)..(29): 2'-O-Methyl) [compound 22980] | 34.60
